Source: patent publication US6395747B1, “Remedies for multiple sclerosis” (Kyorin Pharmaceutical Co., Ltd., priority 2001, dated 2002)

Columns and labels:
EAE model [1] = experiment: Histological evaluation of spinal cord inflammation in rat EAE model; type: in vivo, DA strain rats; conditions: 10 mg/kg once a day through a feeding tube, 12 days after immunization
EAE model [2] = experiment: Clinical disease ameliorating effect in rat EAE (multiple sclerosis) model; type: in vivo, DA strain rats; conditions: DA rats
[3] = 10 mg/kg once a day through a feeding tube

With CC(C)C(=O)c1c(C(C)C)nn2ccccc12 [ibudilast] the “histological effect in comparison with the control” value (EAE model [1]) was “significant effect histologically”, the “average histological score (inflammation, lumbar spinal cord, hematoxylin-eosin)” value (EAE model [1]; score scale 0-4) was “about 2.0” and the “clinical disease condition (clinical score) versus control group” value (EAE model [2]; 2 mg/kg once a day through a feeding tube) was “tendency of amelioration”. For the same compound, the body weight decrease (EAE model [2]; [3]) was “suppressed significantly”, the “clinical disease condition (clinical score) versus control group” value (EAE model [2]; [3]) was “significant amelioration” and the disease onset (EAE model [2]; ibudilast-treated group, oral once a day) was “delayed”.
